According to US20050234066A1, “Alpha substituted carboxylic acids” (Agouron Pharmaceuticals, Inc., priority 2004, published 2005):
Where two headings read alike, the source gives them in different places.

Legend:
PPAR-γ = biological target: T1, PPAR-γ (Homo sapiens, UniProt P37231); assay: Scintillation Proximity Assay (SPA), displacement of 3H labeled darglitazone; format: binding; settings: 3H darglitazone displacement
T1 sequence (P37231 1-505): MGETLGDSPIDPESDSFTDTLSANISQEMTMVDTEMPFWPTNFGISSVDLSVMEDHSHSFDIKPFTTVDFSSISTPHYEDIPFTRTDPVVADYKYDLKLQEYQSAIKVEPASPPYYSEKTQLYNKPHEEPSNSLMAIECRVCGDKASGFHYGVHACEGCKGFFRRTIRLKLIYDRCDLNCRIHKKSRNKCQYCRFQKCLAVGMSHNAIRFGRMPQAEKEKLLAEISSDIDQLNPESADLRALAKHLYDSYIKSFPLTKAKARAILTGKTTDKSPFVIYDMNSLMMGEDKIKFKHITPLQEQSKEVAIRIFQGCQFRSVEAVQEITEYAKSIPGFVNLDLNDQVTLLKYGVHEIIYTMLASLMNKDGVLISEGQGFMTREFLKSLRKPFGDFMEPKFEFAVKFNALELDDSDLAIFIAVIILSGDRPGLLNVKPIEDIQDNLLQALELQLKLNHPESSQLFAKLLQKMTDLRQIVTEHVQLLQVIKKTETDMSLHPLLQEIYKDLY
Source text: (§1) Scintillatian Proximity Assay (SPA) Assays
(§2) In the SPA assay, 3H labeled darglitazone (for PPAR-γ) or GW2331 (for PPAR-α) is bound to the PPAR protein captured on SPA polylysine beads and generates radioactive count signal that can be detected by TopCounts (Packard). The PPAR-bound 3H labeled ligand can be displaced by an unlabeled compound. The Ki of the compound can be then determined by the extent of displacement at various compound concentrations. Reagents: • SPA polylysine beads, which can be purchased from Amersham Bioscience. • H labeled Darglitazone for PPAR-γ. • H labeled GW2331 for PPAR-α. • PPAR proteins. • Buffer—PBS, 10% glycerol, 14 mM beta-mercaptoethanol.

PPAR-α = biological target: T2, PPAR-α (Homo sapiens, UniProt Q07869); assay: Scintillation Proximity Assay (SPA), displacement of 3H labeled GW2331; format: binding; settings: 3H GW2331 displacement
T2 sequence (Q07869 1-468): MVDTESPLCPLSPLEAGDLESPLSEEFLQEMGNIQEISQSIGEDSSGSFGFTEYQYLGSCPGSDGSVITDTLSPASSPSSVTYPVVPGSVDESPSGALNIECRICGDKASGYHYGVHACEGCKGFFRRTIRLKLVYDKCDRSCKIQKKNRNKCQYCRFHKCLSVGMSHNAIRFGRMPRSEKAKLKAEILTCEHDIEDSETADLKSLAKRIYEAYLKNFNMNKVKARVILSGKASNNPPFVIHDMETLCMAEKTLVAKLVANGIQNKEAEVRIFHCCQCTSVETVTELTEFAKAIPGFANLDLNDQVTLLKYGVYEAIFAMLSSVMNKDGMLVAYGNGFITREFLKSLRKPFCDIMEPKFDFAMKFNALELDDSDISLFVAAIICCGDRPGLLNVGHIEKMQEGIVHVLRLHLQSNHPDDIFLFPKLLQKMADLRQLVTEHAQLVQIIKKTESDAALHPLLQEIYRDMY
Source text: as §1, §2

Ki (PPAR-γ; read-out: PPAR-gamma Ki) [nM] | Ki (PPAR-α; read-out: PPAR-alpha Ki) [nM] | SMILES | also measured
2300 | 21 | CCC(Oc1cccc(CNC(=O)OCc2nc(-c3ccccc3)oc2C)c1)C(=O)O (stereo not shown) [Example B-14] | 
 | 120 | Cc1oc(-c2ccccc2)nc1CCOc1cccc(-c2cccc(OC3(C(=O)O)CCC3)c2)n1 [Example A-07] | 
1500 | 4400 | Cc1oc(-c2ccccc2)nc1CCOc1ccc(-c2cccc(OC3(C(=O)O)CCC3)c2)cc1 [Example A-10] | 
 | 7100 | CS(=O)(=O)Oc1ccc(CCOc2ccc(CC3(C(=O)O)CCCO3)cn2)cc1 (stereo not shown) [Example C-72] | 
7800 |  | COC(C)(Cc1ccc(OCCCc2nc(-c3ccccc3)oc2C)nc1)C(=O)O [Example D-27] | 
 | 2900 | Cc1oc(-c2ccccc2)nc1CCOc1cnc(CC2(C(=O)O)CCCO2)cn1 (stereo not shown) [Example C-77] | Ki (PPAR-γ; PPAR-gamma Ki): 150 nM
180 | 140 | Cc1onc(-c2ccccc2)c1COc1cccc(-c2cccc(OC3(C(=O)O)CCC3)c2)c1 [Example A-20] | 
6000 |  | Cc1oc(-c2ccccc2)nc1CCCOc1ccc(CC2(C(=O)O)CCCO2)nc1 (stereo not shown) [Example C-55] | 
11000 | 22000 | O=C(O)C1(Cc2ccc(OCCc3ccc(-c4ccc(F)cc4)cc3)cc2)CCC1 [Example C-07] | 
 | 82 | CCC(Oc1cccc(CNC(=O)OCCCc2nc(-c3ccccc3)oc2C)c1)C(=O)O (stereo not shown) [Example B-18] | 
8 | 4 | Cc1ccc(-c2nc(CCOc3ccc(CC4(C(=O)O)CCCO4)cc3)c(C)o2)cc1 (stereo not shown) [Example C-83] | 
180 | 2900 | Cc1sc(-c2ccccc2)nc1CCOc1ccc(CC2(C(=O)O)CCCO2)nc1 (stereo not shown) [Example C-51] | 
21 | 64 | COc1ccc(-c2nc(CCOc3ccc(CC4(C(=O)O)CCCO4)cc3)c(C)o2)cc1 (stereo not shown) [Example C-84] | 
 |  | COc1cccc(-c2nc(CCOc3ccc(CC4(C(=O)O)CCCO4)nc3)c(C)o2)c1 (stereo not shown) [Example C-54] | Ki (PPAR-γ; PPAR-gamma Ki): 20 nM; Ki (PPAR-α; PPAR-alpha Ki): 1200 nM
 | 390 | Cc1oc(-c2ccccc2)nc1CCOc1ccc(CC2(C(=O)O)CCCC2)cc1 [Example C-02] | 
35 | 150 | Cc1cccc(-c2nc(CCOc3ccc(CC4(C(=O)O)CCC4)cc3)c(C)o2)c1 [Example C-32] | 
61 | 50 | COC(Cc1ccc(OCCc2nc(-c3ccc(C(F)(F)F)cc3)oc2C)nc1)C(=O)O [Example D-09] | 
8100 |  | COC(Cc1ccc(OCCc2ccc(OS(C)(=O)=O)cc2)nc1)C(=O)O [Example D-12] | 
 | 2200 | CCC(Oc1cccc(CNC(=O)OCCc2cccc(C(F)(F)F)c2)c1)C(=O)O (stereo not shown) [Example B-02] | 
43 | 1100 | Cc1cccc(-c2nc(CCOc3ccc(CC4(C(=O)O)CCCO4)nc3)c(C)o2)c1 (stereo not shown) [Example C-50] | 
3200 | 4200 | Cn1nc(-c2ccccc2)nc1CCOc1cccc(-c2cccc(OC(C)(C)C(=O)O)c2)c1 [Example A-25] | 
1500 | 59 | COC(C)(Cc1ccc(OCCc2nc(C3CCCCC3)oc2C)nc1)C(=O)O [Example D-32] | 
1600 | 1000 | CCOC(Cc1cccc(CNC(=O)OCCc2nc(-c3ccccc3)oc2C)c1)C(=O)O (stereo not shown) [Example B-24] | 
9500 | 41000 | COc1ccc(-c2ccc(CCOc3ccc(CC4(C(=O)O)CCC4)cc3)cc2)cc1 [Example C-06, 1-{4-[2-(4′-methoxy-1,1′-biphenyl-4-yl)ethoxy]benzyl}cyclobutanecarboxylic acid] | 
7200 |  | O=C(O)C1(Cc2ccc(OCCCc3nc(-c4ccccc4)oc3-c3ccccc3)cc2)CCC1 [Example C-38] | 
 | 930 | CCOC(Cc1ccc(OCCCc2nc(-c3ccccc3)oc2C)cn1)C(=O)O [Example D-24] | 
6400 |  | CCOC(Cc1ccc(OCCc2ccc(OCCOC)cc2)nc1)C(=O)O [Example D-16] | 

Ki (PPAR-γ; read-out: PPAR-gamma Ki) [nM] | Ki (PPAR-α; read-out: PPAR-alpha Ki) [nM] | SMILES | also measured
16 |  | Cc1oc(-c2ccc(C(F)(F)F)c(F)c2)nc1CCOc1ccc(CC2(C(=O)O)CCCO2)cc1 (stereo not shown) [Example C-82] | 
 | 7800 | CC(Cc1ccccc1)OC(=O)NCc1cccc(OC(C)(C)C(=O)O)c1 (stereo not shown) [Example B-28] | 
 | 6400 | Cc1ccccc1CCOc1ccc(CC2(C(=O)O)CCCO2)cn1 (stereo not shown) [Example C-70] | 
 | 550 | CC(C)(Oc1cccc(-c2cccc(OCc3ccc(C(F)(F)F)cc3)c2)c1)C(=O)O [Example A-02, 2-Methyl-2-[(3′-{[4-(trifluoromethyl)benzyl]oxy}1,1′-biphenyl-3-yl)oxy]propanoic acid] | 
 | 1600 | CC(C)(Oc1cccc(CNS(=O)(=O)c2ccc(Oc3ccccc3)cc2)c1)C(=O)O [Example B-20] | 
 | 21 | Cc1oc(-c2ccc(C(F)(F)F)cc2)nc1CCOc1ccc(CC2(C(=O)O)CCCO2)cn1 (stereo not shown) [Example C-63] | 
 | 8300 | Cc1oc(-c2ccccc2)nc1CCOc1ccc(CC2(C(=O)O)CCCCC2)cn1 [Example C-47] | 
42 |  | CC(C)(C)OC(=O)Nc1ccc(CCOc2ccc(CC3(C(=O)O)CCCO3)cn2)cc1 (stereo not shown) [Example C-73] | 
9600 |  | COC(C)(Cc1ccc(OCCc2nc(C(C)C)oc2C)nc1)C(=O)O [Example D-38] | 
2900 |  | CCOC(Cc1ccc(OCCc2nc(C)sc2C)cn1)C(=O)O [Example D-25] | 
 | 2900 | Cc1oc(-c2ccccc2)nc1CCCOc1ccc(CC2(C(=O)O)CCCC2)cc1 [Example C-03] | 
 | 31 | Cc1ccc(-c2nc(CCOc3ccc(CC4(C(=O)O)CCCO4)cn3)c(C)o2)cc1 (stereo not shown) [Example C-66] | 
 | 240 | Cc1oc(-c2ccccc2)nc1CCOc1ccc(CC2(C(=O)O)CCCO2)cn1 (stereo not shown) [Example C-48, 2-({6-[2-(5-methyl-2-phenyl-1,3-oxazol-4-yl)ethoxy]pyridin-3-yl}methyl)tetrahydrofuran-2-carboxylic acid] | 
 | 220 | CCC(Oc1cccc(CNC(=O)OCc2ccc(-c3noc(C)n3)cc2)c1)C(=O)O (stereo not shown) [Example B-27] | 
 | 330 | COC(C)(Cc1ccc(OCCc2nc(-c3ccccc3)oc2C)nc1)C(=O)O [Example D-35] | 
 | 15000 | Cc1oc(-c2ccccc2)nc1CCOc1ccc(CC2(C(=O)O)CCOCC2)cc1 [Example C-05] | 
 | 14 | Cc1oc(-c2ccc(Cl)cc2)nc1CCOc1ccc(CC2(C(=O)O)CCCO2)cn1 (stereo not shown) [Example C-64] | 
 | 65 | COc1ccc(-c2nc(CCOc3ccc(CC4(C(=O)O)CCCO4)cn3)c(C)o2)cc1 (stereo not shown) [Example C-60] | 
4200 |  | Cc1nc(CCOc2ccc(CC3(C(=O)O)CCCO3)cn2)c(C)s1 (stereo not shown) [Example C-68] | 
820 |  | Cc1oc(-c2ccccc2)nc1CCCCc1ccc(CC2(C(=O)O)CCCO2)cn1 (stereo not shown) [Example C-75] | 
 | 54 | Cc1oc(-c2cccc(Cl)c2)nc1CCOc1ccc(CC2(C(=O)O)CCCO2)cn1 (stereo not shown) [Example C-59] | 
 | 78 | Cc1oc(-c2ccccc2)nc1CCOc1ccc(CC2(C(=O)O)CCCCO2)cn1 (stereo not shown) [Example C-56] | 
5000 |  | COC(C)(Cc1ccc(OCCc2nc(-c3cc(C)nn3C)oc2C)nc1)C(=O)O [Example D-39] | 
 | 5900 | COC(C)(Cc1ccc(OCCc2ccc(OC(F)(F)F)cc2)nc1)C(=O)O [Example D-41] | 
 | 9000 | CCC(Oc1cccc(CNC(=O)OCCc2nc(-c3ccccc3)oc2C)c1)C(=O)O (stereo not shown) [Example B-13] | 
 | 36000 | Cc1oc(-c2ccccc2)nc1CCOc1ccc(C(O)C2(C(=O)O)CCC2)cn1 (stereo not shown) [Example C-44] | 
 | 9700 | Cc1ccc(CCOc2ccc(CC3(C(=O)O)CCCO3)cn2)cc1 (stereo not shown) [Example C-71] | 
